Source: PMC8241751, “Influence of the Dabcyl group on the cellular uptake of cationic peptides: short oligoarginines as efficient cell-penetrating peptides” (Amino Acids, 2021)
Where a SMILES comes first, the peptide text is derived from it. The star is where a group is joined. 5FAM = O=C1OC2(c3ccc(O)cc3Oc3cc(O)ccc32)c2ccc(C(=O)*)cc21; X1 = CN(C)c1ccc(/N=N/c2ccc(C(=O)*)cc2)cc1

Legend:
HL-60 cells [1] = assay: Cellular uptake by flow cytometry on HL-60 cells; type: cell-based, human; details: 90 min, 37 °C, serum-free
Procedure: HL-60 cells were cultured as described above. To study the cellular uptake of fluorescent labelled compounds, 10^5 cells per well were plated on 24-well plates. After 24 h incubation at 37 °C, cells were treated with the compounds solved in the corresponding serum-free media for 90 min. The cellular uptake was analysed at 1, 5 and 10 µM concentrations. Cells treated with serum-free media for 90 min were used as control. After incubation, treatment solutions were removed and the cells were treated with 100 μL trypsin for 2 min to remove the membrane proteins in order to eliminate non-specific binding of conjugates. The effect of trypsin was terminated by 900 μL HPMI (glucose, NaHCO3, NaCl, HEPES, KCl, MgCl2, CaCl2, Na2HPO4·2H2O) (Kapus et al. [1994]) containing 10% foetal calf serum, and the cells were transferred from the plate to FACS-tubes. Cells were centrifuged at 216 g at 4 °C for 5 min and the supernatant was removed. After this procedure, cells were resuspended in 500 µL HPMI, and the intracellular fluorescence intensity of HL-60 cells was monitored (on channel FITC LP505; emission at λ = 505 nm; LP 505, BP 530/30) by flow cytometry (BD LSR II, BD Bioscience, San Jose, CA, equipped with 488 nm; Coherent Sapphire, 22 mW laser.) which is proportional to the cellular uptake. Data were analysed with FACSDiVa 5.0 software.

CHO-K1 cells [2] = assay: Absolute quantification of total internalised peptide by fluorometry; details: for Total (37 °C–4 °C) (pmoles) Endocyt. / 4 °C/37 °C (Fluoro): CHO-K1, 60 min; for Total (37 °C–4 °C) (pmoles) Endocyt.: difference of fluorometry values at 37 °C and 4 °C; for 4 °C/37 °C (Fluoro): internalisation ratio by fluorometry; for Total 4 °C (pmoles) Transloc. / Total 37 °C (pmoles) Endocyt. + Transloc.: one million CHO-K1 cells, DMEM-F12, 60 min, cell lysis, fluorometry 525 nm vs calibration curve, mean values; for Total 4 °C (pmoles) Transloc.: pronase wash; for Total 37 °C (pmoles) Endocyt. + Transloc.: trypsin wash
Procedure: We used the quantification method described earlier (Illien et al. [2016]). […] After incubation with peptides and washing the cells with HBSS, 500 μL 0.05% trypsin/EDTA 0.05% (37 °C) or 500 µL pronase 0.05% in 100 mM Tris pH 7.4 (4 °C) was added for 5 min to hydrolyze the remaining extracellular peptide, the membrane-bound peptide and to detach cells. After addition of 100 µL enzyme inhibitors (complete mini at 4 °C (Roche) or trypsin inhibitor (soybean inhibitor 5 mg/mL) at 37 °C mixed with 100 μL bovine serum albumin (1 mg/mL), cells were transferred into a microtube, centrifuged, washed with 1 mL 50 mM Tris buffer pH 7.4, 0.1% BSA, and lysed in 200 μL 50 mM Tris pH 7.4, 1 M NaCl, 1% Nonident P40. The samples were then sonicated for 15 min (to homogenise samples) and centrifugated for 10 min at 16.000 g. Fluorescence intensity in the supernatants was monitored with a MOS 200 M fluorimeter (Biologic SAS) and the maximal intensity was detected around λ = 525 nm. The maximal intensity was retained for the calibration curve and for quantification of samples. The amount of internalised peptides was calculated by comparing the fluorescence intensity of the sample with the calibration curve. For the calibration curve, we prepared a range of peptide amounts (from 2 to 500 pmol) in the lysis buffer (50 mM Tris pH 7.4, 1 M NaCl, 1% Nonidet P40) in the presence of one million suspended cells. The samples were sonicated 15 min and centrifuged at 16.000 g for 10 min. Fluorescence intensity in the supernatants was monitored with a MOS 200 M fluorimeter (Biologic SAS, France) and the maximal intensity was detected around λ = 525 nm. The fluorescence signal of peptides only was obtained by subtracting the fluorescence intensity of cell lysates (autofluorescence) from the fluorescence intensity of the sample.

CHO-K1 cells [3] = assay: Relative quantification of total internalised peptide by flow cytometry; details: CHO-K1, 1 h, DMEM-F12, internalisation ratio by flow cytometry, intact cells, 20.000 cells
Procedure: After incubation and washing the cells with HBSS, 500 μL 0.05% trypsin/EDTA 0.05% (37 °C) or 500 µL pronase 0.05% in 100 mM Tris-buffer (4 °C) was added for 5 min to hydrolyze the remaining extracellular peptide, the membrane-bound peptide and to detach cells. After addition of 100 µL enzyme inhibitors (complete mini at 4 °C (Roche) or trypsin inhibitor (soybean inhibitor 5 mg/mL) at 37 °C mixed with 100 μL bovine serum albumin (1 mg/mL). Cells were transferred into a microtube, centrifuged, washed with 1 mL 50 mM Tris-buffer pH 7.4, 0.1% BSA, and the cell pellet was suspended in 400 μL of PBS. The fluorescence of individual cells was analysed with a FACS Calibur flow cytometer. 20.000 cells were measured for each experimental condition. The mean fluorescence of a sample was obtained by subtracting the autofluorescence of cells from the measured mean fluorescence of cells in the presence of the peptide.

HL-60 cells [4] = assay: In vitro cytostatic activity (MTT) on HL-60; type: cell-based, human; details: HL-60; 3 h incubation, then 3 days in serum-containing medium; MTT assay; ± sd, three independent experiments with four parallels
Procedure: The cells (HL-60 or MCF-7) were grown to confluency and were plated into 96-well plate with initial cell number of 5 × 10^3 per well. After 24 h incubation at 37 °C, cells were treated with the compounds at 1.28 × 10^–3–100 μM concentration range for 3 h in 200 μL final volume. Control cells were treated with serum free medium at 37 °C for 3 h. After incubation the cells were washed twice with serum free medium. For the analysis of the in vitro cytostatic effect, cells were cultured for an additional 72 h in serum containing medium. On day 4, MTT assay was carried out to determine the IC50 values of the compounds. Briefly, 45 μL of MTT solution was added to each well (2 mg/mL, dissolved in serum-free medium). Following the 4 h incubation, plates were centrifuged at 900 g for 5 min, and the supernatant was removed. The precipitated purple crystals were dissolved in 100 μL DMSO and the absorbance was determined at λ = 540 nm and λ = 620 nm using ELISA plate reader (iEMSReader, Labsystems, Finland). The percent of cytostasis was calculated using the following equation: Cytostatic effect (%) = [1 − (ODtreated/ODcontrol)] × 100; where ODtreated and ODcontrol correspond to the optical densities of the treated and the untreated control cells, respectively. In each case three independent experiments were carried out with four parallel measurements. […] The curves were defined using MicrocalTM Origin (version 9.2) software: cytostasis was plotted as a function of concentration, fitted to a sigmoidal curve, and based on this curve, the IC50 value was determined.

CN(C)c1ccc(/N=N/c2ccc(C(=O)N[C@@H](CCCNC(=N)N)C(=O)N[C@@H](CCCNC(=N)N)C(=O)N[C@@H](CCCNC(=N)N)C(=O)N[C@@H](CCCNC(=N)N)C(=O)N[C@@H](CCCNC(=N)N)C(=O)N[C@@H](CCCNC(=N)N)C(=O)N[C@@H](CCCCNC(=O)c3ccc4c(c3)C(=O)OC43c4ccc(O)cc4Oc4cc(O)ccc43)C(N)=O)cc2)cc1 [Dabcyl–Arg6–Lys(Cf)–NH2] (X1-RRRRRRK(5FAM)-NH2)
Cellular uptake, times higher than that of octaarginine (HL-60 cells [1]; HL-60, 5 μM): 4 times
Cellular uptake, times higher than that of octaarginine (HL-60 cells [1]; HL-60, 10 μM): 1.5 times
Total (37 °C–4 °C) (pmoles) Endocyt. (CHO-K1 cells [2]; [peptide] 1 μM): 1.9 pmol
4 °C/37 °C (Fluoro) (CHO-K1 cells [2]; [peptide] 1 μM): 0.25
Total 4 °C (pmoles) Transloc. (CHO-K1 cells [2]; [peptide] 1 μM): 0.6 ± 0.04 pmol
Total 37 °C (pmoles) Endocyt. + Transloc. (CHO-K1 cells [2]; [peptide] 1 μM): 2.5 ± 0.2 pmol
Total (37 °C–4 °C) (pmoles) Endocyt. (CHO-K1 cells [2]; [peptide] 2.5 μM): 22 pmol
4 °C/37 °C (Fluoro) (CHO-K1 cells [2]; [peptide] 2.5 μM): 0.08
Total 4 °C (pmoles) Transloc. (CHO-K1 cells [2]; [peptide] 2.5 μM): 1.9 ± 0.3 pmol
Total 37 °C (pmoles) Endocyt. + Transloc. (CHO-K1 cells [2]; [peptide] 2.5 μM): 24 ± 1.3 pmol
Total (37 °C–4 °C) (pmoles) Endocyt. (CHO-K1 cells [2]; [peptide] 5 μM): 53 pmol
4 °C/37 °C (Fluoro) (CHO-K1 cells [2]; [peptide] 5 μM): 0.10
Total 4 °C (pmoles) Transloc. (CHO-K1 cells [2]; [peptide] 5 μM): 6.1 ± 0.8 pmol
Total 37 °C (pmoles) Endocyt. + Transloc. (CHO-K1 cells [2]; [peptide] 5 μM): 59 ± 2.5 pmol
Total (37 °C–4 °C) (pmoles) Endocyt. (CHO-K1 cells [2]; [peptide] 10 μM): 131 pmol
4 °C/37 °C (Fluoro) (CHO-K1 cells [2]; [peptide] 10 μM): 0.12
Total 4 °C (pmoles) Transloc. (CHO-K1 cells [2]; [peptide] 10 μM): 18 ± 2 pmol
Total 37 °C (pmoles) Endocyt. + Transloc. (CHO-K1 cells [2]; [peptide] 10 μM): 149 ± 6 pmol
4 °C/37 °C (Flow cyto.) (CHO-K1 cells [3]; [peptide] 1 μM): 0.14
4 °C/37 °C (Flow cyto.) (CHO-K1 cells [3]; [peptide] 2.5 μM): 0.04
4 °C/37 °C (Flow cyto.) (CHO-K1 cells [3]; [peptide] 5 μM): 0.05
4 °C/37 °C (Flow cyto.) (CHO-K1 cells [3]; [peptide] 10 μM): 0.04
IC50 (HL-60 cells [4]): 21.8 ± 8.2 µM
